These results are taken from patent US4324728A, “Compound nanaomycin A and derivatives thereof and a process for producing the same” (The Kitasato Institute, priority 1976, dated 1982).

In one test the test system is Mycoplasma pneumoniae. Briefly: Minimal inhibitory concentration (PPLO agar). The test is classed as cell-based. Particulars: 192 h, Eiken PPLO agar, pH 7.8, 8 days, 37° C.
The next test deals with Mycoplasma gallisepticum. As to the kind of experiment: Therapeutic effect on chronic respiratory disease of chickens. The test is classed as in vivo.
The subject of test [1] is Mycoplasma gallisepticum S-6. As to the kind of experiment: Minimal inhibitory concentration (PPLO agar). The test is classed as cell-based. Particulars: Mycoplasmoides gallisepticum, S6, 192 h, pH 7.8, 8 days, 37° C. Here is the method: (§1) H Hokken PPLO agar (pH 7.8, 8 days, 37° C.)
(§2) E Eiken PPLO agar (pH 7.8, 8 days, 37° C.)
(§3) MIC Minimal inhibitory concentration

Test [2] concerns Mycoplasma gallisepticum 333P (Spiramycin resistant). Briefly: Minimal inhibitory concentration (PPLO agar). It is filed as cell-based. The procedure: as §1, §2, §3
In test [3] the test system is Acholeplasma laidlawii (B) Bml. As to the kind of experiment: Minimal inhibitory concentration (PPLO agar). It is filed as cell-based. The conditions noted are these: 192 h, pH 7.8, 8 days, 37° C. The procedure: as §1, §2, §3
Test [4] deals with Acholeplasma laidlawii (A) PG8. Briefly: Minimal inhibitory concentration (PPLO agar). The conditions noted are these: pH 7.8, 8 days, 37° C. The test is classed as cell-based. The procedure:
as §1, §2, §3

Test [5] deals with Mycoplasma gallisepticum KP-13. Briefly: Minimal inhibitory concentration (PPLO agar). The test is classed as cell-based. Particulars: Mycoplasmoides gallisepticum, KP13, 192 h, pH 7.8, 8 days, 37° C. The procedure:
as §1, §2, §3

For test [6], the system named is Xanthomonas oryzae N-5824. Briefly: microbe, parasite or virus in culture. The test is classed as cell-based. The conditions noted are these: N5824, 48 h, pH 7.
Test [7] relates to Klebsiella pneumoniae PCI 602. As to the kind of experiment: Minimal inhibitory concentration (agar). The test is classed as cell-based. Particulars: PCI602, 48 h, nutrient agar, pH 7.0, 2 days, 37° C.
The next test concerns Mycoplasma gallinarum. Briefly: Minimal inhibitory concentration (PPLO agar). The test is classed as cell-based. The conditions noted are these: Mycoplasmopsis gallinarum, 192 h, Hokken PPLO agar, pH 7.8, 8 days, 37° C. Here is the method: as §1, §3, §2
The next test has as its system Mycoplasma iners. Briefly: Minimal inhibitory concentration (PPLO agar). The conditions noted are these: Mycoplasmopsis iners, 192 h; Hokken PPLO agar, pH 7.8, 8 days, 37° C. It is filed as cell-based. The procedure: as §1, §3, §2
In a further test the test system is mycoplasma. As to the kind of experiment: Antimycoplasma activity, paper disc method. The test is classed as cell-based. Here is the method:
Inhibitory zone is assayed by paper disc method (Eiken PPLO agar, pH 7.8,
Nanaomycin A and derivatives thereof according to the present invention are assayed in a similar manner to that designated as the paper disc method by Itoh, et al [J. of Antibiotics, 24, 855-859 (1971)], for example, as follows: […]

The next test concerns Piricularia oryzae. Briefly: microbe, parasite or virus in culture. The test is classed as cell-based. The conditions noted are these: 96 h, pH 6.4, potato agar, pH 6.4, 4 days, 27° C.
The test system of a further test is Trichophyton purpureum. As to the kind of experiment: Minimal inhibitory concentration (agar). The test is classed as cell-based. The conditions noted are these: 96 h, pH 6.4, potato agar, pH 6.4, 4 days, 27° C., read-out: MIC.
The test system of test [8] is parasite of the genus Tricophyton. Briefly: Therapeutic effect on infectious diseases in guinea pigs and cattle. It is filed as in vivo. Particulars: concentration 0.01-1%. The procedure: When dermatomycosis of cattle caused by mass infection of Trichophyton verrucosum is treated with nanaomycin A, nanaomycin A is dissolved or suspended in a suitable carrier, for example, olive oil, and is coated on the affected part directly with or without removal of the scales. […] The results obtained by once-coating of nanaomycin A and by twice-coating (the second coating is carried out a week after the first coating) are shown in Tables 2 and 3, respectively.

In brackets after ≈: the same amount, converted by molar mass. Read-outs that look alike come from different tables or passages of the source.

Turning to `CC1OC(CC(=O)O)CC2=C1C(=O)c1c(O)cccc1C2=O` (centres unmarked) [Nanaomycin A, nanaomycin A], the MIC was 0.013 µg/mL (≈ 0.043 µM) in the test on Mycoplasma pneumoniae; below 0.013 µg/mL in test [1] (pH 7.8, Hokken PPLO agar); 0.1 µg/mL (≈ 0.331 µM) in test [1] (Eiken PPLO agar, read-out: MIC); below 0.013 µg/mL in test [2] (Eiken PPLO agar, pH 7.8, 8 days, 37° C.); below 0.013 µg/mL in test [2] (Mycoplasmoides gallisepticum, 192 h, pH 7.8); above 25 µg/mL in test [3] (pH 7.8, Eiken PPLO agar). For the same compound, the MIC in test [3] (pH 7.8, Hokken PPLO agar) was 25 µg/mL (≈ 82.7 µM); in test [4] (Acholeplasma laidlawii, 192 h, Hokken PPLO agar, read-out: MIC), above 25 µg/mL; in test [4] (Eiken PPLO agar), above 25 µg/mL; in test [5] (pH 7.8, Eiken PPLO agar), 0.05 µg/mL (≈ 0.165 µM); in test [5] (pH 7.8, Hokken PPLO agar) it was below 0.013 µg/mL; in test [6] it was 62.5 µg/mL (≈ 207 µM). Also, the MIC in test [7] turned out to be 31.3 µg/mL (≈ 104 µM); against Mycoplasma gallinarum, 1.56 µg/mL (≈ 5.16 µM); against Mycoplasma iners it was 3.12 µg/mL (≈ 10.3 µM). Also, the “therapeutic effect on chronic respiratory disease” value with Mycoplasma gallisepticum is given as “exhibits therapeutic effect”. Also, the “activity against spiramycin-resistant Mycoplasma gallisepticum” value in test [2] (in words) is given as “strong activity”. Besides, the zone of inhibition at 10 µg/mL with mycoplasma (Mycoplasma, 24 h, 10 μg/ml, Eiken PPLO agar, pH 7.8, 37° C., 1 day, read-out: Inhibitory Zone) came out at 20.4 mm. In addition, the zone of inhibition at 100 µg/mL in the test on mycoplasma (Mycoplasma, 24 h, 100 μg/ml, Eiken PPLO agar, pH 7.8, 37° C., 1 day, read-out: Inhibitory Zone) was 28.7 mm. Further, the “antimycoplasma activity compared with deoxyfrenolicin and ethylkalafunginate” value in the test on mycoplasma (paper disc, Table 5) was “superior to those of deoxyfrenolicin and ethylkalafunginate”.
With `CC(=O)Oc1cccc2c1C(=O)C1=C(CC(CC(=O)O)OC1C)C2=O` (centres unmarked) [Acetylnanaomycin A, acetylnanaomycin A], the MIC against Piricularia oryzae came out at 0.8 µg/mL (≈ 2.32 µM); in the test on Trichophyton purpureum it was 1.6 µg/mL (≈ 4.65 µM). Also, in test [8], the “therapeutic effect on Trichophyton infectious diseases” value is “superior therapeutic effect to nanaomycin A”.
